Experimental data taken from EP0260814B1, “Dopamine-Beta-hydroxylase inhibitors” (SMITHKLINE BEECHAM CORPORATION, priority 1986, dated 1988).

Assays:
DBH [1] = target: T1, DBH (Homo sapiens, UniProt P09172); test: in vitro DBH inhibition: conversion of tyramine to octopamine in the presence of DBH, absorbance at 330 nm; assay type: biochemical
T1 sequence (P09172 1-617): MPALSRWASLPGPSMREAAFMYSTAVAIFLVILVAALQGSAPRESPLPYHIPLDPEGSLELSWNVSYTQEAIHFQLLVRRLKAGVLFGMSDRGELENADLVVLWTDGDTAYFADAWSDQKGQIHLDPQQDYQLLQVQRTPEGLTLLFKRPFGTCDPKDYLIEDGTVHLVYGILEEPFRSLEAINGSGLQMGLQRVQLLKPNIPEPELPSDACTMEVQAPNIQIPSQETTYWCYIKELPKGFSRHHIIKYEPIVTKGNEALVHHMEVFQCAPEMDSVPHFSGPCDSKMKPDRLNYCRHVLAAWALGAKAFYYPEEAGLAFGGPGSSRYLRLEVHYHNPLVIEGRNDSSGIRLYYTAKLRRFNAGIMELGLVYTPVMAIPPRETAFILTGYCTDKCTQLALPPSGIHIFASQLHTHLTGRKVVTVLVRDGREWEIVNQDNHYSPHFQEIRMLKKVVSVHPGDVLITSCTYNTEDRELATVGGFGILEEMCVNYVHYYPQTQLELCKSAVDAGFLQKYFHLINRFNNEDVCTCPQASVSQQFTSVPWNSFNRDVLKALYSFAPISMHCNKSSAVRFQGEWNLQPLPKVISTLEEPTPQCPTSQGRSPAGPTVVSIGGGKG
Procedure: Octopamine was assayed following sodium periodate oxidation to p-hydroxybenzaldehyde by measuring spectrophotometric absorbance at 330 nm. […] Melting points (mp) are given in °C. […]

[2] = study comparing effects on blood pressure of hydroxy compounds and their methoxy analogues; assay type: in vivo; settings: for blood pressure reductions: equivalent doses of hydroxy compound and methoxy analogue
Description: In a study conducted to compare the effects on blood pressure of compounds wherein Y is -OH, X is 3-F or 3,5-F₂ and n is 1 to their Y is -OCH₃ analogues, the maximum blood pressure reduction observed after administration of the hydroxy compound in which X is 3-F was 18%, whereas one-half the dose of its methoxy analogue produced a 35% blood pressure reduction. Also, equivalent doses of the compound in which Y is -OH, X is 3,5-F₂, and n is 1 and its Y is -OCH₃ analogue produced, respectively, 20% and 35% blood pressure reductions.

[3] = system: peripheral dopamine and norepinephrine levels; test: effects on peripheral dopamine and norepinephrine levels (procedure of DaPrada and Zürcher); assay type: in vivo, Spontaneously hypertensive rats
Procedure: Spontaneously hypertensive rats were dosed twice, the second dose being about 18 hr after the first, and were sacrificed about 2 hr after the second dose. […] In Table II, R= -H, Y= -OH and n=1; in Table II A, R= -H, Y= -OCH₃, and n=1.

DBH [4] = target: T1, DBH; settings: reported by Runti et al.; cited from earlier work

COc1ccc(Cn2ccnc2S)cc1F [Example 5, 1-(3-Fluoro-4-methoxybenzyl)-2-mercaptoimidazole]
inhibition at 100 µM (DBH [1]; at 10⁻⁴ molar concentration): 67%
blood pressure reduction ([2]; one-half the dose of the hydroxy compound in which X is 3-F): 35%

COc1c(F)cc(Cn2ccnc2S)cc1F [Example 6, 1-(3,5-Difluoro-4-methoxybenzyl)-2-mercaptoimidazole]
DA/NE Ratio ([3]; Table IIA (R= -H, Y= -OCH₃, n=1), dose not given): .204^(1)
DA ([3]; Table IIA (R= -H, Y= -OCH₃, n=1), dose not given, dosed twice, sacrificed about 2 hr after second dose): 1.178 ± .087 µg/g
blood pressure reductions ([2]; dose not given): 35%

Oc1ccc(Cn2ccnc2S)cc1F [n=1, X=3-F, Y=OH, R=H]
IC50 (DBH [1]; molar concentration of compound at which DBH activity was halved, read-out: IC₅₀): 1400 nM
maximum blood pressure reduction ([2]; after administration of the hydroxy compound, dose not given): 18%

O=C(O)c1ccc(Cc2ccc(O)cc2)cn1 [phenypicolinic acid]
inhibitory activity relative to fusaric acid (DBH [4]): twice the inhibitory activity of fusaric acid

Oc1c(F)cc(Cn2ccnc2S)cc1F [n=1, X=3,5-F₂, Y=OH, R=H]
DA/NE Ratio ([3]; Table II (for X= compounds: R= -H, Y= -OH, n=1), 50 mg/kg, dosed twice): .0824 .0128^(2)
DA (µg/g) ([3]; Table II (for X= compounds: R= -H, Y= -OH, n=1), 50 mg/kg, dosed twice, sacrificed about 2 hr after second dose): .708 .068^(1) µg/g
blood pressure reductions ([2]; dose not given): 20%
